Literature values in patent US20140235552A1 (priority 2013, published 2014).
No end group written: not given here.

Experiments:
gastrin levels = conditions: 90 mg/day for 6 years or greater; cited from earlier work
[1] = tested on: patients with type 2 diabetes; conditions: 12 weeks, cited from earlier work
beta cell mass = conditions: after infusion in rats; cited from earlier work
[2] = tested on: human pancreatic ductal tissue; conditions: in vitro, without epidermal growth factor; cited from earlier work

For `Cc1c(OCC(F)(F)F)ccnc1C[S+]([O-])c1nc2ccccc2[nH]1` (stereo not shown) [Lansoprazole, 1H-Benzimidazole,2-[[[3-methyl-4-(2,2,2-trifluoroethoxy)-2-pyridinyl]methyl]sulfinyl]-2-[[[3-Methyl-4-(2,2,2-trifluoroethoxy)-2-pyridyl]-methyl]sulfinyl]benzimidazole], the “gastrin levels relative to normal” value (gastrin levels) is listed as roughly 7 fold and the safety profile (gastrin levels) is listed as “sustained safety profile”.
In the case of `COc1ccc2nc([S@@+]([O-])Cc3ncc(C)c(OC)c3C)[nH]c2c1` [esomeprazole], the “increase in area under the curve (AUC) of gastrin” value ([1]; 20 type 2 diabetes patients, 40 mg) is listed as 9 fold, the “insulin secretion, glycaemic control or cardiovascular disease biomarkers” value ([1]; type 2 diabetes, authors' conclusion) is listed as “did not improve” and the “change in insulin AUC” value ([1]; type 2 diabetes, inventor's reading of the published data) is listed as “no decline”.
For “gastrin: gastrointestinal hormone demonstrated to result in new beta cell formation (QGPWLEEEEEAYGWMDF; ends and bridges not checked; UniProt P01350 76-92, looked up)”, the beta cell mass (beta cell mass) is listed as “doubling” and the “beta cell neogenesis from human pancreatic ductal tissue” value [2] is listed as “induce beta cell neogenesis”.
